2 molecules from ChEMBL document CHEMBL4184096 (Bioorg Med Chem Lett, 2018) can be followed below.

The inhibition is the share of the control response that was lost under treatment. Lower therefore signals a response near the control. Broadly, the IC50 is the concentration needed to halve the response being measured.

For data set [1], the target named is T1, KvLQT1/minK (Kv7.1/minK) potassium channel (Homo sapiens, UniProt P51787+Q8N4C8). The data set can be described thus: Inhibition of human KvLQT1/minK channel expressed in CHO cells at 1 uM at holding potential of -80 mV by whole cell patch clamp assay relative to control. Type of data set: cell-based. The settings on record: CHO cells expressing human KvLQT1/minK channel.

Data set [2] concerns the target T1, KvLQT1/minK (Kv7.1/minK) potassium channel. Put plainly: Inhibition of human KvLQT1/minK channel expressed in CHO cells at 10 uM at holding potential of -80 mV by whole cell patch clamp assay relative to control. The settings on record: CHO cells expressing human KvLQT1/minK channel. The data set is classed as cell-based.
Data set [3] addresses Sodium channel protein type 5 subunit alpha (Homo sapiens, UniProt Q14524). Put plainly: Inhibition of human Nav1.5 channel expressed in HEK293 cells at holding potential of -70 mV by whole cell patch clamp assay. The data set is classed as cell-based.
Data set [4] has as its target T2, Voltage-gated inwardly rectifying potassium channel KCNH2 (Homo sapiens, UniProt Q12809). Put plainly: Inhibition of human ERG expressed in HEK293 cells at holding potential of -80 mV by whole cell patch clamp assay. Type of data set: cell-based. (The patch-clamp technique gives a direct electrical read-out from membranes.)
Data set [5] in a line: Plasma concentration in human cardiac arrhythmia model. The data set is classed as ADME, cell-free.
The target in another data set is hERG (KCNH2) (Homo sapiens, UniProt Q12809). Put plainly: Inhibition of human ERG expressed in HEK293 cells at 30 nM at holding potential of -80 mV by whole cell patch clamp assay relative to control. The conditions noted are these: HEK293 cells expressing human ERG. Type of data set: cell-based.
Data set [6] in a line: Protein binding to human plasma at 30 to 1000 ng/ml after 2 to 6 hrs by LC-MS/MS based rapid equilibrium dialysis method. The settings on record: read-out: PPB (converted). The data set is classed as ADME, cell-free. On the technique in general: In equilibrium dialysis only unbound substance equilibrates across the membrane.
Data set [7] is described as follows: Fraction unbound in human plasma at 30 to 1000 ng/ml after 2 to 6 hrs by LC-MS/MS based rapid equilibrium dialysis method. The data set is classed as ADME, cell-free.
For data set [8], the target named is T2, Voltage-gated inwardly rectifying potassium channel KCNH2. Put plainly: Inhibition of human ERG expressed in HEK293 cells by patch clamp assay. The data set is classed as cell-based.

T1 sequence (P51787 whole entry): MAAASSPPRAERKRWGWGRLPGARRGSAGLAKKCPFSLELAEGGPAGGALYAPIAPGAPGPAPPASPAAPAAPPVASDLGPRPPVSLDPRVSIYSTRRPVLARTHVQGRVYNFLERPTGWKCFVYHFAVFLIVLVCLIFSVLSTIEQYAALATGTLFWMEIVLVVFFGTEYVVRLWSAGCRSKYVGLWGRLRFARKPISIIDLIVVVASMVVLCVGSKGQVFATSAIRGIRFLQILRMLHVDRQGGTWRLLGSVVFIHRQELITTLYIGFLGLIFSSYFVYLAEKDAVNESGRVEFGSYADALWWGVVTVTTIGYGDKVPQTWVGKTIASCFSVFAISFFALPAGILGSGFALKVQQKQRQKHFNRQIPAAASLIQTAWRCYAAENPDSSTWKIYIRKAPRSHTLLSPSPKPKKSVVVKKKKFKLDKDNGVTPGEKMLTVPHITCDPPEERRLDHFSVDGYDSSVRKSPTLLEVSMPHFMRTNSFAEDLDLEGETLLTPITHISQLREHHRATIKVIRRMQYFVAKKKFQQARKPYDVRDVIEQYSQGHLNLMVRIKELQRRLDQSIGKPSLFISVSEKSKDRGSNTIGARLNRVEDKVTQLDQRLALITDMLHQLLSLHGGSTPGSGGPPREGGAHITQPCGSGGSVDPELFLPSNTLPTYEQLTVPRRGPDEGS
T1 sequence (Q8N4C8 whole entry): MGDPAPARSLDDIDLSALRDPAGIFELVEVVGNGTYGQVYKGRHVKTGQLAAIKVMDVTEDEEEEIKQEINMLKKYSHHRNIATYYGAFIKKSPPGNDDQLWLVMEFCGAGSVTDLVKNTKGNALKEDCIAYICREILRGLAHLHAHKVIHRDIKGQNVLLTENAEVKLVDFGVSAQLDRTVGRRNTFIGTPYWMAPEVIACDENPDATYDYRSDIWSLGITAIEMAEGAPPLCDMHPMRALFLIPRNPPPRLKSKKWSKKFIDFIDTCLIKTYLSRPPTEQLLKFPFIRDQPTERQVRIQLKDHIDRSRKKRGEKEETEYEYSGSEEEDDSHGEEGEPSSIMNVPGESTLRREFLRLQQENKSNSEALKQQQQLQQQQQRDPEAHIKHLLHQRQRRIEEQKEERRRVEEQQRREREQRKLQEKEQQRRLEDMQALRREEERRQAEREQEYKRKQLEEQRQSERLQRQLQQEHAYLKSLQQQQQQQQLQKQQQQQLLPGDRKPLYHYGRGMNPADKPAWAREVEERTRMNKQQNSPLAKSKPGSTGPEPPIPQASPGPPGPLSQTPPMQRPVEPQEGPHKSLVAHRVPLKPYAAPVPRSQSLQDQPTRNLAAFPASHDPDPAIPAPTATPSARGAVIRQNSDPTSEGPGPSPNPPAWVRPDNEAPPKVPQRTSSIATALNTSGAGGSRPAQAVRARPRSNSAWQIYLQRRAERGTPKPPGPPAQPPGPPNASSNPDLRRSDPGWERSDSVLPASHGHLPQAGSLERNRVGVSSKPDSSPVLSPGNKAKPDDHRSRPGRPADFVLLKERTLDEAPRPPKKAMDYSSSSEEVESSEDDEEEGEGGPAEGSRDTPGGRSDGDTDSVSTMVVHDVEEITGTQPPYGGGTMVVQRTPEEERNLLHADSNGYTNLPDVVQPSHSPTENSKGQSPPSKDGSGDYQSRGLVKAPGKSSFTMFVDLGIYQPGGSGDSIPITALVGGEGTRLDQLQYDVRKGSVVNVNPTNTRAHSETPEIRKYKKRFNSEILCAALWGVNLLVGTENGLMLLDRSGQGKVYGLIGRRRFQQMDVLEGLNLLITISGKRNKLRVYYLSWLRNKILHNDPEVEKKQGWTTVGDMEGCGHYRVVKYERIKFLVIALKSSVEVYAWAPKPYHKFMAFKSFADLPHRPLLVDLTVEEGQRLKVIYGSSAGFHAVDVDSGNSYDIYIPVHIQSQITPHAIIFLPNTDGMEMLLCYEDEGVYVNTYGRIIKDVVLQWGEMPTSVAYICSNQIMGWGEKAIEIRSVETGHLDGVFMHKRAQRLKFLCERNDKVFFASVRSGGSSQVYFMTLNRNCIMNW
T2 sequence (Q12809 whole entry): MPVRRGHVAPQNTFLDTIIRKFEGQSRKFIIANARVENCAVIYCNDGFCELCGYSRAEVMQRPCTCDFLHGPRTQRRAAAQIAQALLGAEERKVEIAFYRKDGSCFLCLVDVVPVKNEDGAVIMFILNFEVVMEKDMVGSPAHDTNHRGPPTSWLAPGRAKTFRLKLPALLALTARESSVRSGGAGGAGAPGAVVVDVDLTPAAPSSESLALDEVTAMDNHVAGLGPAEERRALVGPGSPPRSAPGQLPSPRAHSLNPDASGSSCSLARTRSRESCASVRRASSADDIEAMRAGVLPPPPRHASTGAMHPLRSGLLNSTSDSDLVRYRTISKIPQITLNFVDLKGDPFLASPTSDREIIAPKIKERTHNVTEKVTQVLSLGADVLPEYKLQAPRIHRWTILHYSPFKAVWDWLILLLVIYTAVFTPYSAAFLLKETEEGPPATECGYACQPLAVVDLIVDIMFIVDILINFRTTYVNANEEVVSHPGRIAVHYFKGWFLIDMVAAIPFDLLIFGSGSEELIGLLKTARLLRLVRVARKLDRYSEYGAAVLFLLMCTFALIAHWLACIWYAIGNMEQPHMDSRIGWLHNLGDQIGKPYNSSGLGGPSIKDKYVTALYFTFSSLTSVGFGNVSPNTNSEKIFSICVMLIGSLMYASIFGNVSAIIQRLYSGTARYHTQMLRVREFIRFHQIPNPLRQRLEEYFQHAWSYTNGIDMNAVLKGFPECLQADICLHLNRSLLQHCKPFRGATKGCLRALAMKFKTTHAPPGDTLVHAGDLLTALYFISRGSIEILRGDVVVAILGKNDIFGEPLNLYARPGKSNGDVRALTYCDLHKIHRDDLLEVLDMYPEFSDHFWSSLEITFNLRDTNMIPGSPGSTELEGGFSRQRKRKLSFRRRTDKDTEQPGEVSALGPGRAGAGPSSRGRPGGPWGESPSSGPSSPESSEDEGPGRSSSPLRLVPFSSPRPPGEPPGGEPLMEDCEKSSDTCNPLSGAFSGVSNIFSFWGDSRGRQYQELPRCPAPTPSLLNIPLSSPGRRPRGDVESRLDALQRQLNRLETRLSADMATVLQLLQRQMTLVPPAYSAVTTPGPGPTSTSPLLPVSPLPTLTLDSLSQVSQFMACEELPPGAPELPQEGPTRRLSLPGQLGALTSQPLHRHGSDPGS
Chain of hERG (KCNH2) (Q12809 whole entry): as above

The molecule `CNC(=O)C(CCN1CCC(O)(c2ccc(Cl)cc2)CC1)(c1ccccc1)c1ccccc1` registered an inhibition at 1 µM in [1] of 4%. Moreover, the inhibition at 10 µM in [2] came to 23%. Further, the IC50 in data set [3] amounted to 483 nM; in data set [4], 245 nM. For the same molecule, in [5], the Cp lay within 560 to 630 ng/mL. Moreover, the inhibition at 0.03 µM on hERG (KCNH2) came to 5.9%. The fraction unbound in data set [6] is 0.043. The molecule also displayed a Cp(f) in data set [7] of 48 to 54 nM.

For `CN(C)C(=O)C(CCN1CCC(O)(c2ccc(Cl)cc2)CC1)(c1ccccc1)c1ccccc1` [LOPERAMIDE], in data set [1], the inhibition at 1 µM was determined as 17%. In addition, the inhibition at 10 µM in [2] came to 65%. For the same molecule, in [3], the IC50 stood at 239 nM. For the same molecule, the Cp in [5] lay within 76 to 120 ng/mL. In addition, in data set [6], the fraction unbound was 0.03 to 0.05. Also, the Cp(f) in data set [7] fell in the range of 6.3 to 10 nM. In addition, the “inhibition (INH)” value in [8] came to 20%.
